Data taken from publication PMC10009787 (ACS Medicinal Chemistry Letters, 2023).
Like-named read-outs stand apart in the source and are kept apart here.

Legend:
[1] = biological target: FRK (PTK5) (Homo sapiens, UniProt P42685); assay: SelectScreen kinase profiling; type: biochemical; conditions: average of duplicate
[2] = biological target: T1, ITK (Homo sapiens, UniProt Q08881); assay: AssayQuant kinact/Ki profiling, PhosphoSens CSox-based kinetic assay; conditions: for kinact: read-out: ITK kinact; for kinact/KI: read-out: ITK kinact/KI
T1 sequence (Q08881 1-620): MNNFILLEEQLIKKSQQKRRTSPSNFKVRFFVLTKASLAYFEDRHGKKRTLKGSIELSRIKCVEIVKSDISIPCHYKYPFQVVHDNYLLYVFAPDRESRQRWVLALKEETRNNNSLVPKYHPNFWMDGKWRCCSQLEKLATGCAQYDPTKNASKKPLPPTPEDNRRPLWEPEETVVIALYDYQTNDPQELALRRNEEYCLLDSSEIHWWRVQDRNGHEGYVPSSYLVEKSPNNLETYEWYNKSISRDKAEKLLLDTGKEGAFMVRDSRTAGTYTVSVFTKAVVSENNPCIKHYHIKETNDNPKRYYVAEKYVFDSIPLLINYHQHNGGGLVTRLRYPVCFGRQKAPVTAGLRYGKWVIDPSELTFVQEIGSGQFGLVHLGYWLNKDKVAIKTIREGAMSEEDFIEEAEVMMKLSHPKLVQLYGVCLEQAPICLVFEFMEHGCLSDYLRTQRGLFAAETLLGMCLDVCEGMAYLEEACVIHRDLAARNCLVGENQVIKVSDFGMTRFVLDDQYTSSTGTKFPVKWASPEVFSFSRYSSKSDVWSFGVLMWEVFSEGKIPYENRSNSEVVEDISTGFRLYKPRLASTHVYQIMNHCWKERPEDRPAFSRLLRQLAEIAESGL

[3] = biological target: TEC (Homo sapiens, UniProt P42680); assay: SelectScreen kinase profiling; type: biochemical; conditions: average of duplicate
[4] = biological target: TXK (Homo sapiens, UniProt P42681); assay: SelectScreen kinase profiling; type: biochemical; conditions: average of duplicate
[5] = biological target: HCK (Homo sapiens, UniProt P08631); assay: AssayQuant kinact/Ki profiling, PhosphoSens CSox-based kinetic assay; conditions: for kinact: read-out: HCK kinact; for kinact/KI: read-out: HCK kinact/KI
[6] = biological target: EGFR (ErbB1) (Homo sapiens, UniProt P00533); assay: SelectScreen kinase profiling / Z′-Lyte kinase assay; conditions: for Hillslope: EGFR IC50 curve
[7] = biological target: BTK (Homo sapiens, UniProt Q06187); assay: Western blot, phosphorylation of BTK in Jeko-1 cells; type: cell-based; conditions: 2 h
[8] = biological target: LYN A (Homo sapiens, UniProt P07948); assay: SelectScreen kinase profiling; type: biochemical; conditions: average of duplicate
[9] = biological target: ERBB2 (HER2) (Homo sapiens, UniProt P04626); assay: SelectScreen kinase profiling; type: biochemical; conditions: average of duplicate
[10] = biological target: MAP2K1 (MEK1) S218D S222D (Homo sapiens, UniProt Q02750, S218D/S222D); assay: SelectScreen kinase profiling; type: biochemical; conditions: average of duplicate
[11] = biological target: PDGFRA (PDGFR alpha) (Homo sapiens, UniProt P16234); assay: SelectScreen kinase profiling; type: biochemical; conditions: average of duplicate
[12] = biological target: PDGFRB (PDGFR beta) (Homo sapiens, UniProt P09619); assay: SelectScreen kinase profiling; type: biochemical; conditions: average of duplicate
[13] = biological target: KIT V559D (Homo sapiens, UniProt P10721, V559D); assay: SelectScreen kinase profiling; type: biochemical; conditions: average of duplicate
[14] = biological target: MAP2K5 (MEK5) (Homo sapiens, UniProt Q13163); assay: SelectScreen kinase profiling; type: biochemical; conditions: average of duplicate
[15] = biological target: ERN1 (Homo sapiens, UniProt O75460); assay: SelectScreen kinase profiling; type: biochemical; conditions: average of duplicate
[16] = biological target: T2, BTK-NanoLuc fusion (Homo sapiens, UniProt Q06187); assay: NanoBRET cellular engagement of BTK; type: cell-based; conditions: for IC50: HEK293 cells
T2 construct: host or cells: HEK293
Method: NanoBRET Experiments: HEK293 cells were transfected with the BTK-NanoLuc fusion vector (Promega, #N2501) according to the manufacturer’s protocol. After […]
Promega, #N2501) for 30 minutes. After an additional 30, 60, or 90 minutes the NanoBRET complete substrate plus inhibitor solution (3X solution in Opti-MEM I reduced serum medium, no phenol red, Promega, #N2501) was added to each well.
After 5-10 minutes, the BRET ratio was measured using BMG Labtech CLARIOstar with preloaded filters for donor 450nm/80nm BP (band pass) and acceptor 610nm LP (long

[17] = biological target: BLK (Homo sapiens, UniProt P51451); assay: AssayQuant kinact/Ki profiling, PhosphoSens CSox-based kinetic assay; type: biochemical; design: purchased ThermoFisher / Life Technologies SelectScreen PV3683; conditions: for kinact/KI / BLK kinact/Ki: 2.5 nM enzyme, 1000 µM ATP, two step fit; for kinact: fitted value, two step
[18] = biological target: RIPK2 (Homo sapiens, UniProt O43353); assay: SelectScreen kinase profiling; type: biochemical; conditions: average of duplicate
[19] = biological target: TTK (Homo sapiens, UniProt P33981); assay: SelectScreen kinase profiling; type: biochemical; conditions: average of duplicate

Sequence of EGFR (ErbB1) (P00533 668-1210 limits assumed): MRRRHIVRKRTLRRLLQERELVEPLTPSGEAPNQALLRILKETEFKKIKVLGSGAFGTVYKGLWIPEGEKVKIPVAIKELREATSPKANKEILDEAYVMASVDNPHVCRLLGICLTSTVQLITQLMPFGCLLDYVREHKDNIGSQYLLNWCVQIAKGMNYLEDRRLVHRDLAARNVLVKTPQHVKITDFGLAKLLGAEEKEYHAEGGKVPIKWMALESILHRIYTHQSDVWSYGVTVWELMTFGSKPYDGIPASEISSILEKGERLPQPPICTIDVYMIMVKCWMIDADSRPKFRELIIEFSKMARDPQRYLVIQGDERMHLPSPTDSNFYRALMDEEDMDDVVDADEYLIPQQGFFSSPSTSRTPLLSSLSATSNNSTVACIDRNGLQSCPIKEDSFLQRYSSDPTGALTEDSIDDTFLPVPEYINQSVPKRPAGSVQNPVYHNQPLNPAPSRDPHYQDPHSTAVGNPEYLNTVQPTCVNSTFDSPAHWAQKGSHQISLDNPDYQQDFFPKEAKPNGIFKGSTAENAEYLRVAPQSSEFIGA
Sequence of HCK (P08631 whole entry): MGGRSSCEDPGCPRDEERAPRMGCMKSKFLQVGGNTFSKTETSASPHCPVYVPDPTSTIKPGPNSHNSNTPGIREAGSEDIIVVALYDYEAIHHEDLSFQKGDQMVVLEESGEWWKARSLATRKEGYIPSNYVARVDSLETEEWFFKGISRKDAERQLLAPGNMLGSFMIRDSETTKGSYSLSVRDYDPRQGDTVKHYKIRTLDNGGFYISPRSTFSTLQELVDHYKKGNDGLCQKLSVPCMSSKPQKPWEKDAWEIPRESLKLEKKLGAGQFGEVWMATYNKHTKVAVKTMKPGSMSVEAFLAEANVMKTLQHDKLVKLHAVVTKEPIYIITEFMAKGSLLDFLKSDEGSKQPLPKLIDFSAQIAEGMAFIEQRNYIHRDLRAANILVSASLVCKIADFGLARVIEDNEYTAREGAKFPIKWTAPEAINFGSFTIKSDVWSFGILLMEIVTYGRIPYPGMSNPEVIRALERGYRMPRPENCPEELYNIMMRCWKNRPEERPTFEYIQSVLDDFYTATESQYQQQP
T2 sequence (Q06187 whole entry, the tested form may be a part): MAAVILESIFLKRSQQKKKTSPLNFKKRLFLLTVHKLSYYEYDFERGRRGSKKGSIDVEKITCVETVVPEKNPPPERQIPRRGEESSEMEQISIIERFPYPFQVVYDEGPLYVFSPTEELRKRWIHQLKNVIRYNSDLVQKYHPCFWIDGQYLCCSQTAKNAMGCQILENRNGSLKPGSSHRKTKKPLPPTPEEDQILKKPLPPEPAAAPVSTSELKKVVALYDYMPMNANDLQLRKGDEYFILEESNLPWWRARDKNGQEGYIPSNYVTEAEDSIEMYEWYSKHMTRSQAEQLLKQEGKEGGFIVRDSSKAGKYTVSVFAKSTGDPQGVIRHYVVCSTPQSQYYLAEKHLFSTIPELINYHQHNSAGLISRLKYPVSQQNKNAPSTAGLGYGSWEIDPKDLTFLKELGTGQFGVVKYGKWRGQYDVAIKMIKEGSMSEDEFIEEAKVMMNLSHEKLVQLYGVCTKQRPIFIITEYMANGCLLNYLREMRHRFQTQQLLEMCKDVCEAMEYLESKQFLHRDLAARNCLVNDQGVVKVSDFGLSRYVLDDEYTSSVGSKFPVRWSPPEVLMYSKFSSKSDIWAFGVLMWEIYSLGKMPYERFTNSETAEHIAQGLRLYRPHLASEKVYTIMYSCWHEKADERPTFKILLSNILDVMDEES
Sequence of BTK (Q06187 whole entry): as the sequence (Q06187 whole entry, the tested form may be a part) above
Sequence of BLK (P51451 whole entry): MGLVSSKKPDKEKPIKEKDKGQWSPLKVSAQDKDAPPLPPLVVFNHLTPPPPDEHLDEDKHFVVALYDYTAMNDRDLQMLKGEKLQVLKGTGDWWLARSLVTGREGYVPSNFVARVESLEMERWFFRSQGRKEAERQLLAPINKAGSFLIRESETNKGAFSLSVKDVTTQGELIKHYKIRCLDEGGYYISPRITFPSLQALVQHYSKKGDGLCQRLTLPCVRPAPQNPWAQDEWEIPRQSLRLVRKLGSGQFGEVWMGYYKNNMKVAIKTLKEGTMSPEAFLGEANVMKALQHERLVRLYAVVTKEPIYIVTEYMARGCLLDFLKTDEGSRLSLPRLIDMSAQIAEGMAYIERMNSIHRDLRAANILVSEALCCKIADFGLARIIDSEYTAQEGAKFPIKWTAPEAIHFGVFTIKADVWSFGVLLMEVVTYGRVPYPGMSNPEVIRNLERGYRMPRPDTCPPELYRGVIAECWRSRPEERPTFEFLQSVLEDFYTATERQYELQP
Sequence of MAP2K5 (MEK5) (Q13163 whole entry): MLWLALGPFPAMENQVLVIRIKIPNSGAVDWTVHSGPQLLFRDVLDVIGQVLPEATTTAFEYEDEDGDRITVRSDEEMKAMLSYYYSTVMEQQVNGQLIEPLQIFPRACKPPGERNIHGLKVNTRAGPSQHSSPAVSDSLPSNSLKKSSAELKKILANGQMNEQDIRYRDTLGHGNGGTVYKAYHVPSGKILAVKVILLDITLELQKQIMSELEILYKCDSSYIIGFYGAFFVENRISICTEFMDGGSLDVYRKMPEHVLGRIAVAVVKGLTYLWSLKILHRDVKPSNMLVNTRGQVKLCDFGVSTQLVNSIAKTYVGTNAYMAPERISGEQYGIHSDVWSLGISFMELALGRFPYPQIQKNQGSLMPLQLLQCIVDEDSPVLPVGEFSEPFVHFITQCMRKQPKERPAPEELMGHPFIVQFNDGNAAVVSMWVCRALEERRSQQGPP
Sequence of TEC (P42680 whole entry): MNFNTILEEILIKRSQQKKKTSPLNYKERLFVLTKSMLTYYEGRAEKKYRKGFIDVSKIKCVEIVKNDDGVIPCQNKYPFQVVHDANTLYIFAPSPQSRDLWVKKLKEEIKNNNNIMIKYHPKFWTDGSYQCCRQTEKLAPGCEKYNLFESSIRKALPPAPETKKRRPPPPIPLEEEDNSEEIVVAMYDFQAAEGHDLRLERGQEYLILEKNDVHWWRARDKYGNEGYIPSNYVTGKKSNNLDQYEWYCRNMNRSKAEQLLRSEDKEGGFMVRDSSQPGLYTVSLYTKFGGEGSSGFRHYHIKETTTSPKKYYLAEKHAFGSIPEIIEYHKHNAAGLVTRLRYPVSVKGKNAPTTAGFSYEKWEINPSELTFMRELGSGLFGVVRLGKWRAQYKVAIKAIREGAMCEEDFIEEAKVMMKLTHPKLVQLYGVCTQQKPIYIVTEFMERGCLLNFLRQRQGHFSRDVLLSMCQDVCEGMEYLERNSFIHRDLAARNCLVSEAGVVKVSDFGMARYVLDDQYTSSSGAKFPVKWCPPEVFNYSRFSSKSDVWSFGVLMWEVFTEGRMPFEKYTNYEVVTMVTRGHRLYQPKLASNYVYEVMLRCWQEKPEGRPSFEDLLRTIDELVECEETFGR
Sequence of KIT V559D (P10721 26-976 V559D): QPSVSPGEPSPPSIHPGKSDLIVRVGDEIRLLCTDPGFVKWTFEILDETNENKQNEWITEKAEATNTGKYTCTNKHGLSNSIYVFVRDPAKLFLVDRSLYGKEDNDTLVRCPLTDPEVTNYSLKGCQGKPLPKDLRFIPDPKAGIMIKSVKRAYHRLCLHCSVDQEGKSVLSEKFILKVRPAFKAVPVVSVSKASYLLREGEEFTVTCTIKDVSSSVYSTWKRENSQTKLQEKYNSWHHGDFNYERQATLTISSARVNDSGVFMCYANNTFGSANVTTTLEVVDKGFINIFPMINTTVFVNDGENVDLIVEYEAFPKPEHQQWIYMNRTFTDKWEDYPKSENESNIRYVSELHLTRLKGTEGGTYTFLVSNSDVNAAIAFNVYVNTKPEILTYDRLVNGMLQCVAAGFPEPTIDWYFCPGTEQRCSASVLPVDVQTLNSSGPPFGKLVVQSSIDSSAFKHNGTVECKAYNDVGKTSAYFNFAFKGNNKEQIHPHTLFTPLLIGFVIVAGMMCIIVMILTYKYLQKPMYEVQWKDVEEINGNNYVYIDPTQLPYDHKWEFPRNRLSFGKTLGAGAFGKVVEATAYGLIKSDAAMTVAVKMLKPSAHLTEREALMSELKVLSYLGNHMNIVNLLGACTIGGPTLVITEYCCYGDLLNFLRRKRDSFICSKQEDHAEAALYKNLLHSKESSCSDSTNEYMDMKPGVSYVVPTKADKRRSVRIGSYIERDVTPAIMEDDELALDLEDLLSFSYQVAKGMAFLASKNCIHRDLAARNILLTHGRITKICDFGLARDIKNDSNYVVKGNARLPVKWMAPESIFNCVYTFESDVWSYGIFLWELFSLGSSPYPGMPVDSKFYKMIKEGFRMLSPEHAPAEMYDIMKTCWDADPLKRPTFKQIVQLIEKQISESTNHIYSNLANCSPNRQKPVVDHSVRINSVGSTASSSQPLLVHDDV
Sequence of MAP2K1 (MEK1) S218D S222D (Q02750 whole entry S218D/S222D): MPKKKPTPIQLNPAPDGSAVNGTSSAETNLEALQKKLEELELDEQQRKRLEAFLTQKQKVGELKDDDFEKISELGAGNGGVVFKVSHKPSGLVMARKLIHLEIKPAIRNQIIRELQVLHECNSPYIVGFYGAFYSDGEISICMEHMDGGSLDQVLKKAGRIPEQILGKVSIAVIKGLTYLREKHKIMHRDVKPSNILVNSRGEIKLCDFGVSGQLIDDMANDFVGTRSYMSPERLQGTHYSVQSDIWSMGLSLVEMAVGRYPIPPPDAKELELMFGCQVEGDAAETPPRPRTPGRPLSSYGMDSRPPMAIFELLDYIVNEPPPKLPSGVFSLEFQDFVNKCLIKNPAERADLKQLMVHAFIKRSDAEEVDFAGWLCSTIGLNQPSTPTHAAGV

C=CC(=O)N1CCC[C@@H](n2nc(-c3ccc(Oc4ccccc4)cc3C)c3c(N)ncnc32)C1 [Compound 2, (R)-1-(3-(4-amino-3-(2-methyl-4-phenoxyphenyl)-1H-pyrazolo[3,4-d]pyrimidin-1-yl)piperidin-1-yl)prop-2-en-1-one] gave an inhibition at 1 µM [1] of 71%, a kinact [2] of 0.0001 s⁻¹ and a kinact/KI [2] of 4120 M⁻¹ s⁻¹. For the same compound, the inhibition at 1 µM [3] was 100%, the inhibition at 1 µM [4] was 99% and the kinact [5] was 0.0009 s⁻¹. It also gave a kinact/KI [5] of 1730 M⁻¹ s⁻¹, an IC50 [6] of 197 nM and an inhibition at 1 µM [6] of 89%. For the same compound, the Hillslope [6] was 1.08, the inhibition at 0.000495 µM ([6]; read-out: % Inhibition Point 1) was -6% and the inhibition at 0.00152 µM ([6]; read-out: % Inhibition Point 1) was -4%. The inhibition at 0.00457 µM ([6]; read-out: % Inhibition Point 1) was -2%, the inhibition at 0.0137 µM ([6]; read-out: % Inhibition Point 1) was 4% and the inhibition at 0.0412 µM ([6]; read-out: % Inhibition Point 1) was 10%. For the same compound, the inhibition at 0.123 µM ([6]; read-out: % Inhibition Point 1) was 38%, the inhibition at 0.37 µM ([6]; read-out: % Inhibition Point 1) was 60% and the inhibition at 1.11 µM ([6]; read-out: % Inhibition Point 1) was 89%. The inhibition at 3.33 µM ([6]; read-out: % Inhibition Point 1) was 92%, the inhibition at 10 µM ([6]; read-out: % Inhibition Point 1) was 97% and the inhibition at 0.000495 µM ([6]; read-out: % Inhibition Point 2) was -1%. The inhibition at 0.00152 µM ([6]; read-out: % Inhibition Point 2) was -6%, the inhibition at 0.00457 µM ([6]; read-out: % Inhibition Point 2) was -4% and the inhibition at 0.0137 µM ([6]; read-out: % Inhibition Point 2) was 5%. For the same compound, the inhibition at 0.0412 µM ([6]; read-out: % Inhibition Point 2) was 8%, the inhibition at 0.123 µM ([6]; read-out: % Inhibition Point 2) was 35% and the inhibition at 0.37 µM ([6]; read-out: % Inhibition Point 2) was 63%. It also gave an inhibition at 1.11 µM ([6]; read-out: % Inhibition Point 2) of 82%, an inhibition at 3.33 µM ([6]; read-out: % Inhibition Point 2) of 96% and an inhibition at 10 µM ([6]; read-out: % Inhibition Point 2) of 95%. For the same compound, the “pBTK/BTK ratio normalized to the DMSO control” value (“pBTK/BTK ratio normalized” below) ([7]; 1 uM) was 0.54, the “pBTK/BTK ratio normalized” value ([7]; 10 uM) was 0.21 and the “pBTK/BTK ratio normalized” value ([7]; .01 uM) was 0.26. For the same compound, the “pBTK/BTK ratio normalized” value ([7]; .1 uM) was 0.39, the inhibition at 1 µM [8] was 85% and the inhibition at 1 µM [9] was 71%. For the same compound, the inhibition at 1 µM [10] was 12%, the inhibition at 1 µM [11] was 16% and the inhibition at 1 µM [12] was 6%. For the same compound, the inhibition at 1 µM [13] was 14%, the inhibition at 1 µM [14] was 32% and the inhibition at 1 µM [15] was 2%. For the same compound, the IC50 ([16]; 30 min) was 211 nM, the IC50 ([16]; 60 min (30 + 30)) was 154 nM and the IC50 ([16]; 90 min (30 + 60)) was 118 nM. For the same compound, the IC50 ([16]; 90 min post compound addition) was 109 nM, the IC50 ([16]; 120 min (30 + 90)) was 109 nM and the kinact/KI [17] was 320000 M⁻¹ s⁻¹. For the same compound, the “BLK kinact/Ki” value ([17]; listed as Monomethyl Analog) was 316,000 M^-1S^-1, the kinact [17] was 0.0034 s⁻¹ and the inhibition at 1 µM [18] was 95%. It also gave an inhibition at 1 µM [19] of 2%.

For C=CC(=O)N1CCCC(n2nc(-c3c(C)cc(Oc4ccccc4)cc3C)c3c(N)ncnc32)C1 (stereo in doubt) [Compound 3], the inhibition at 1 µM [1] was 9%, the kinact [2] was 0.0005 s⁻¹ and the kinact/KI [2] was 2800 M⁻¹ s⁻¹. The inhibition at 1 µM [3] was 91%, the inhibition at 1 µM [4] was 94% and the kinact [5] was 0.0001 s⁻¹. For the same compound, the kinact/KI [5] was 5960 M⁻¹ s⁻¹, the IC50 [6] was over 10000 nM and the inhibition at 1 µM [6] was 0%. The “EGFR, BTK/Kinase” value ([6]; BTK selectivity from IC50 values) was over 781 x, the Hillslope [6] was 0.96 and the “EGFR IC50” value ([6]; Z′-Lyte, [ATP] Km app, 1 h incubation, duplicate) was “no observable activities”. For the same compound, the inhibition at 0.000495 µM ([6]; read-out: % Inhibition Point 1) was -4%, the inhibition at 0.00152 µM ([6]; read-out: % Inhibition Point 1) was -1% and the inhibition at 0.00457 µM ([6]; read-out: % Inhibition Point 1) was -2%. It also gave an inhibition at 0.0137 µM ([6]; read-out: % Inhibition Point 1) of -1%, an inhibition at 0.0412 µM ([6]; read-out: % Inhibition Point 1) of -6% and an inhibition at 0.123 µM ([6]; read-out: % Inhibition Point 1) of 1%. The inhibition at 0.37 µM ([6]; read-out: % Inhibition Point 1) was 5%, the inhibition at 1.11 µM ([6]; read-out: % Inhibition Point 1) was 10% and the inhibition at 3.33 µM ([6]; read-out: % Inhibition Point 1) was 20%. For the same compound, the inhibition at 10 µM ([6]; read-out: % Inhibition Point 1) was 41%, the inhibition at 0.000495 µM ([6]; read-out: % Inhibition Point 2) was 3% and the inhibition at 0.00152 µM ([6]; read-out: % Inhibition Point 2) was -2%. For the same compound, the inhibition at 0.00457 µM ([6]; read-out: % Inhibition Point 2) was 1%, the inhibition at 0.0137 µM ([6]; read-out: % Inhibition Point 2) was 0% and the inhibition at 0.0412 µM ([6]; read-out: % Inhibition Point 2) was -3%. For the same compound, the inhibition at 0.123 µM ([6]; read-out: % Inhibition Point 2) was -2%, the inhibition at 0.37 µM ([6]; read-out: % Inhibition Point 2) was 1% and the inhibition at 1.11 µM ([6]; read-out: % Inhibition Point 2) was 5%. The inhibition at 3.33 µM ([6]; read-out: % Inhibition Point 2) was 22%, the inhibition at 10 µM ([6]; read-out: % Inhibition Point 2) was 45% and the “pBTK/BTK ratio normalized” value ([7]; 1 uM) was 0.37. For the same compound, the “pBTK/BTK ratio normalized” value ([7]; 10 uM) was 0.31, the “pBTK/BTK ratio normalized” value ([7]; .01 uM) was 0.47 and the “pBTK/BTK ratio normalized” value ([7]; .1 uM) was 0.36. It also gave an inhibition at 1 µM [8] of 13%, an inhibition at 1 µM [9] of 2% and an inhibition at 1 µM [10] of 4%. For the same compound, the inhibition at 1 µM [11] was 3%, the inhibition at 1 µM [12] was 0% and the inhibition at 1 µM [13] was 1%. The inhibition at 1 µM [14] was 10%, the inhibition at 1 µM [15] was 2% and the “NanoBRET HillSlope” value ([16]; 30 + 30) was -1.148. The “NanoBRET HillSlope” value ([16]; 30 + 60) was -1.118, the “NanoBRET HillSlope” value ([16]; 30 + 90) was -1.419 and the “NanoBRET HillSlope” value ([16]; 30 min Inc) was -1.230. For the same compound, the IC50 ([16]; 30 min) was 806 nM, the IC50 ([16]; 60 min (30 + 30)) was 474 nM and the IC50 ([16]; 90 min (30 + 60)) was 341 nM. For the same compound, the IC50 ([16]; 90 min post compound addition) was 314 nM, the IC50 ([16]; 120 min (30 + 90)) was 315 nM and the kinact/KI [17] was 35000 M⁻¹ s⁻¹. The “BLK kinact/Ki” value ([17]; listed as Dimethyl Analog) was 35,500 M^-1S^-1, the kinact [17] was 0.0021 s⁻¹ and the inhibition at 1 µM [18] was 29%. It also gave an inhibition at 1 µM [19] of -7%.
